# Read-outs that look alike come from different tables or passages of the source.
# Key:
# [1] = test system: Key Grass and Sedge Weeds as well as Grass Crops; experiment: Post-Emergent Test II: postemergent herbicidal activity, visual rating after 14 d (Table 8); format: in vivo; conditions: post-emergence, 336 h; for pest or weed control at 35 g/ha: 35 g ai/ha; for pest or weed control at 70 g/ha: 70 g ai/ha; for pest or weed control at 140 g/ha: 140 g ai/ha
# Summary of the method: (§1)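 Plants were raised in a greenhouse for 7-21 d and treated once at the first or second true leaf stage. Compounds, dissolved in 97:3 acetone:DMSO then diluted into an aqueous acetone/isopropanol/crop oil/Triton X-155 carrier, were applied by overhead track sprayer at 187 L/ha. After 14 d with subirrigation, injury was scored visually from 0 (none) to 100 (complete kill).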
# [2] = test system: Key Broadleaf Weed and Crop Species; experiment: Post-Emergent Test II: postemergent herbicidal activity, visual rating after 14 d (Table 7); format: in vivo; conditions: post-emergence, 336 h; for pest or weed control at 35 g/ha: 35 g ai/ha; for pest or weed control at 70 g/ha: 70 g ai/ha; for pest or weed control at 140 g/ha: 140 g ai/ha
# Summary of the method: as §1
# [3] = barnyardgrass (Echinochloa crus-galli), read-out: Visual Growth Reduction (%) 14 Days After Application ECHCG
# [4] = giant foxtail (Setaria faberi), read-out: Visual Growth Reduction (%) 14 Days After Application SETFA
# [5] = rice (Oryza sativa), read-out: Visual Growth Reduction (%) 14 Days After Application ORYSA
# [6] = wheat, spring (Triticum aestivum), read-out: Visual Growth Reduction (%) 14 Days After Application TRZAS
# [7] = yellow nutsedge (Cyperus esculentus), read-out: Visual Growth Reduction (%) 14 Days After Application CYPES
# [8] = lambsquarters (Chenopodium album), read-out: Visual Growth Reduction (%) 14 Days After Application CHEAL
# [9] = oilseed rape, canola (Brassica napus), read-out: Visual Growth Reduction (%) 14 Days After Application BRSNN
# [10] = redroot pigweed (Amaranthus retroflexus), read-out: Visual Growth Reduction (%) 14 Days After Application AMARE
# [11] = sunflower (Helianthus annuus), read-out: Visual Growth Reduction (%) 14 Days After Application HELAN
# [12] = velvetleaf (Abutilon theophrasti), read-out: Visual Growth Reduction (%) 14 Days After Application ABUTH
# [13] = wild poinsettia (Euphorbia heterophylla), read-out: Visual Growth Reduction (%) 14 Days After Application EPHHL
# [14] = maize, corn (Zea mays), read-out: Visual Growth Reduction (%) 14 Days After Application ZEAMX
Compound,"pest or weed control at 140 g/ha [1, 3]","pest or weed control at 140 g/ha [1, 4]","pest or weed control at 35 g/ha [1, 5]","pest or weed control at 70 g/ha [1, 5]","pest or weed control at 140 g/ha [1, 5]","pest or weed control at 35 g/ha [1, 6]","pest or weed control at 70 g/ha [1, 6]","pest or weed control at 140 g/ha [1, 6]","pest or weed control at 35 g/ha [1, 7]","pest or weed control at 140 g/ha [1, 7]","pest or weed control at 35 g/ha [2, 8]","pest or weed control at 70 g/ha [2, 8]","pest or weed control at 140 g/ha [2, 8]","pest or weed control at 35 g/ha [2, 9]","pest or weed control at 70 g/ha [2, 9]","pest or weed control at 140 g/ha [2, 9]","pest or weed control at 140 g/ha [2, 10]","pest or weed control at 140 g/ha [2, 11]","pest or weed control at 140 g/ha [2, 12]","pest or weed control at 140 g/ha [2, 13]",further results
COC(=O)c1nc(-c2ccc(Cl)c3c2OC(F)(F)O3)c(Cl)c(N)c1Cl [Compound 70],0 to 29%,0 to 29%,0 to 29%,0 to 29%,0 to 29%,0 to 29%,0 to 29%,0 to 29%,0 to 29%,0 to 29%,75 to 84%,85 to 94%,95 to 100%,60 to 74%,60 to 74%,75 to 84%,95 to 100%,95 to 100%,75 to 84%,0 to 29%,"pest or weed control at 35 g/ha [1, 3]: 0 to 29%; pest or weed control at 70 g/ha [1, 3]: 0 to 29%; pest or weed control at 35 g/ha [1, 4]: 0 to 29%; pest or weed control at 70 g/ha [1, 4]: 0 to 29%; pest or weed control at 70 g/ha [1, 7]: 0 to 29%; pest or weed control at 35 g/ha [2, 10]: 95 to 100%; pest or weed control at 70 g/ha [2, 10]: 95 to 100%; pest or weed control at 35 g/ha [2, 11]: 85 to 94%; pest or weed control at 70 g/ha [2, 11]: 95 to 100%; pest or weed control at 35 g/ha [2, 12]: 45 to 59%; pest or weed control at 70 g/ha [2, 12]: 75 to 84%; pest or weed control at 35 g/ha [2, 13]: 0 to 29%; pest or weed control at 70 g/ha [2, 13]: 0 to 29%"
COC(=O)c1nc(-c2ccc3c(c2Cl)OC(F)(F)O3)cc(N)c1Cl [Compound 33],–,45 to 59%,0 to 29%,0 to 29%,0 to 29%,0 to 29%,0 to 29%,0 to 29%,95 to 100%,95 to 100%,75 to 84%,75 to 84%,75 to 84%,60 to 74%,60 to 74%,60 to 74%,95 to 100%,85 to 94%,75 to 84%,60 to 74%,"pest or weed control at 35 g/ha [1, 4]: 0 to 29%; pest or weed control at 70 g/ha [1, 4]: 0 to 29%; pest or weed control at 35 g/ha [1, 14]: 60 to 74%; pest or weed control at 70 g/ha [1, 14]: 60 to 74%; pest or weed control at 140 g/ha [1, 14]: 75 to 84%; pest or weed control at 35 g/ha [2, 10]: 60 to 74%; pest or weed control at 70 g/ha [2, 10]: 75 to 84%; pest or weed control at 35 g/ha [2, 11]: 75 to 84%; pest or weed control at 70 g/ha [2, 11]: 85 to 94%; pest or weed control at 35 g/ha [2, 12]: 60 to 74%; pest or weed control at 70 g/ha [2, 12]: 75 to 84%; pest or weed control at 35 g/ha [2, 13]: 0 to 29%; pest or weed control at 70 g/ha [2, 13]: 60 to 74%"
COC(=O)c1nc(-c2cc3c(cc2Cl)OC(F)(F)O3)cc(N)c1Cl [Compound 40],0 to 29%,–,0 to 29%,0 to 29%,0 to 29%,0 to 29%,0 to 29%,0 to 29%,0 to 29%,0 to 29%,0 to 29%,0 to 29%,0 to 29%,0 to 29%,0 to 29%,0 to 29%,95 to 100%,0 to 29%,0 to 29%,0 to 29%,"pest or weed control at 35 g/ha [1, 3]: 0 to 29%; pest or weed control at 70 g/ha [1, 3]: 0 to 29%; pest or weed control at 35 g/ha [1, 14]: 0 to 29%; pest or weed control at 70 g/ha [1, 14]: 0 to 29%; pest or weed control at 140 g/ha [1, 14]: 45 to 59%; pest or weed control at 70 g/ha [1, 7]: 0 to 29%; pest or weed control at 35 g/ha [2, 10]: 0 to 29%; pest or weed control at 70 g/ha [2, 10]: 95 to 100%; pest or weed control at 35 g/ha [2, 11]: 0 to 29%; pest or weed control at 70 g/ha [2, 11]: 0 to 29%; pest or weed control at 35 g/ha [2, 12]: 0 to 29%; pest or weed control at 70 g/ha [2, 12]: 0 to 29%; pest or weed control at 35 g/ha [2, 13]: 0 to 29%; pest or weed control at 70 g/ha [2, 13]: 0 to 29%"
COC(=O)c1nc(-c2cc(OC)c3c(c2)OCO3)c(F)c(N)c1Cl [Compound 14],0 to 29%,0 to 29%,–,–,0 to 29%,–,–,0 to 29%,–,0 to 29%,–,–,75 to 84%,–,–,0 to 29%,0 to 29%,85 to 94%,0 to 29%,0 to 29%,"pest or weed control at 140 g/ha [1, 14]: 0 to 29%"
